Results as given in PubChem BioAssay (NCI).
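Compound exposure: 48 hours, 5 concentrations, 96-well plates. At the TGI there is no net growth.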

What was measured:
Assay in all cases: growth of human tumour cells (NCI), 48 h
786-0 renal = system: 786-0 renal
A549 NSCLC = system: A549 NSCLC
ACHN renal = system: ACHN renal
BT-549 breast = system: BT-549 breast
CAKI-1 renal = system: CAKI-1 renal
CCRF-CEM leukemia = system: CCRF-CEM leukemia
COLO 205 colon = system: COLO 205 colon
DU-145 prostate = system: DU-145 prostate
EKVX NSCLC = system: EKVX NSCLC
HCC-2998 colon = system: HCC-2998 colon
HCT-116 colon = system: HCT-116 colon
HCT-15 colon = system: HCT-15 colon
HL-60(TB) leukemia = system: HL-60(TB) leukemia
HOP-62 NSCLC = system: HOP-62 NSCLC
HOP-92 NSCLC = system: HOP-92 NSCLC
HS 578T breast = system: HS 578T breast
HT29 colon = system: HT29 colon
IGROV1 ovarian = system: IGROV1 ovarian
K-562 leukemia = system: K-562 leukemia
KM12 colon = system: KM12 colon
LOX IMVI melanoma = system: LOX IMVI melanoma
M14 melanoma = system: M14 melanoma
MALME-3M melanoma = system: MALME-3M melanoma
MCF7 breast = system: MCF7 breast
MDA-MB-231 breast = system: MDA-MB-231 breast
MDA-MB-435 = system: MDA-MB-435
MDA-N = system: MDA-N
MOLT-4 leukemia = system: MOLT-4 leukemia
NCI-H226 lung = system: NCI-H226 lung
NCI-H23 lung = system: NCI-H23 lung
NCI-H460 lung = system: NCI-H460 lung
NCI-H522 lung = system: NCI-H522 lung
NCI/ADR-RES ovarian = system: NCI/ADR-RES ovarian
OVCAR-3 ovarian = system: OVCAR-3 ovarian
OVCAR-4 ovarian = system: OVCAR-4 ovarian
OVCAR-5 ovarian = system: OVCAR-5 ovarian
OVCAR-8 ovarian = system: OVCAR-8 ovarian
PC-3 prostate = system: PC-3 prostate
RPMI-8226 leukemia = system: RPMI-8226 leukemia
RXF 393 renal = system: RXF 393 renal
SF-268 CNS = system: SF-268 CNS
SF-295 CNS = system: SF-295 CNS
SF-539 CNS = system: SF-539 CNS
SK-MEL-2 melanoma = system: SK-MEL-2 melanoma
SK-MEL-28 melanoma = system: SK-MEL-28 melanoma
SK-MEL-5 melanoma = system: SK-MEL-5 melanoma
SK-OV-3 ovarian = system: SK-OV-3 ovarian
SN12C renal = system: SN12C renal
SNB-19 CNS = system: SNB-19 CNS
SNB-75 CNS = system: SNB-75 CNS
SR leukemia = system: SR leukemia
SW-620 colon = system: SW-620 colon
T-47D breast = system: T-47D breast
TK-10 renal = system: TK-10 renal
U251 CNS = system: U251 CNS
UACC-257 melanoma = system: UACC-257 melanoma
UACC-62 melanoma = system: UACC-62 melanoma
UO-31 renal = system: UO-31 renal
A498 renal = system: A498 renal

Measured: TGI

Cc1cc(=O)n2nc(CN3CCCCC3)sc2n1
not listed: A498 renal
> 100 µM: all other assays above

O=C(O)[C@@H]1CSCN1C(=O)[C@@H]1CCC(=S)N1
not listed: COLO 205 colon | EKVX NSCLC | HCT-116 colon | HOP-92 NSCLC | OVCAR-4 ovarian | U251 CNS | UACC-62 melanoma
> 100 µM: all other assays above

NC(CCC(=O)O)C(=O)N1CCN(c2nc(N3CCCC3)c3nc(Cl)c(NCc4ccccc4)nc3n2)CC1 (configuration not stated)
31 µM: HCT-15 colon | TK-10 renal
23.9 µM: COLO 205 colon
27.7 µM: EKVX NSCLC | SK-MEL-28 melanoma
24.4 µM: HL-60(TB) leukemia
33.5 µM: OVCAR-5 ovarian
17.5 µM: SR leukemia
30.7 µM: SN12C renal
25.5 µM: HT29 colon
21.6 µM: UO-31 renal
25.4 µM: BT-549 breast
20.9 µM: SK-MEL-5 melanoma
28.4 µM: HCT-116 colon | HOP-62 NSCLC
32.9 µM: NCI-H226 lung | SK-OV-3 ovarian
51.3 µM: SW-620 colon
38.6 µM: OVCAR-8 ovarian
24.9 µM: HCC-2998 colon | NCI-H460 lung
30.2 µM: U251 CNS
32.3 µM: LOX IMVI melanoma | NCI-H23 lung
24.7 µM: MOLT-4 leukemia | UACC-62 melanoma
40.3 µM: KM12 colon
40 µM: IGROV1 ovarian
35.7 µM: K-562 leukemia
60.2 µM: HS 578T breast
34.3 µM: RPMI-8226 leukemia
29.1 µM: OVCAR-4 ovarian | SF-268 CNS
26.2 µM: CCRF-CEM leukemia | MDA-MB-435
26.9 µM: PC-3 prostate
31.2 µM: MDA-MB-231 breast
21.3 µM: T-47D breast
46.2 µM: NCI/ADR-RES ovarian
21.9 µM: DU-145 prostate
22.6 µM: M14 melanoma
28.5 µM: SF-539 CNS | UACC-257 melanoma
32.2 µM: HOP-92 NSCLC
33.6 µM: MALME-3M melanoma
26.7 µM: SF-295 CNS
31.5 µM: SK-MEL-2 melanoma
25.3 µM: SNB-75 CNS
22.9 µM: OVCAR-3 ovarian
26.1 µM: A549 NSCLC
28.8 µM: ACHN renal
25.9 µM: 786-0 renal
34.5 µM: NCI-H522 lung
39.6 µM: CAKI-1 renal
25.6 µM: MCF7 breast
34.4 µM: SNB-19 CNS
23.1 µM: MDA-N
